Reference: US10597369B2, “Monosulfonic phenyltetrazole compounds with applications” (HANGZHOU JENNIFER BIOTECH CO., LTD., priority 2015, dated 2020)
Structures can show the parent of a compound that is named as a salt.

Columns and labels:
[1] = Reagent stability assays (stored tetrazolium detection reagent tested with NADH, response at 450 nm); type: physicochemical; conditions: for lost activity: detection reagent after storage at 4° C. for a month, tested using 100 μM NADH in 50 mM Tris-Cl (pH 8); for changes in activity on storage: storage at −20° C. for up to a year, tested monthly in NADH titration
Protocol: The tetrazolium detection reagent (WST-8 or EZMTT) was stored at 4 and −20° C., respectively. Once a month, the stored tetrazolium detection reagent was tested using 100 μM NADH in 50 mM Tris-Cl (pH 8) and the response was measured at 450 nm.
For the stability test, the WST-8, EZMTT detection reagents were stored at 4° C. and −20° C. up to a year. Both reagents were tested in NADH titration every month for their activities.

SMILES | lost activity [1] | changes in activity on storage [1] | melting point
COc1cc([N+](=O)[O-])ccc1-[n+]1nc(-c2ccc(S(=O)(=O)[O-])cc2S(=O)(=O)[O-])nn1-c1ccc([N+](=O)[O-])cc1.[Na+] [WST-8, 2-(3-(2-methoxy-4-nitrophenyl)-2-(4-nitrophenyl)-2H-tetrazolium)benzene disulfonate sodium salt, reference compound] | 60% | essentially no changes in activity | –
COc1cc([N+](=O)[O-])ccc1-[n+]1nc(-c2ccccc2S(=O)(=O)O)nn1-c1ccc([N+](=O)[O-])cc1 (as salt: sodium) [EZMTT, 2-(4-nitrophenyl)-3-(2-methoxy-4-nitrophenyl)-5 (2-sulfonic phenyl)-2H-tetrazolium monosodium salt] | – | – | 105 °C
COc1cc([N+](=O)[O-])ccc1-[n+]1nc(-c2ccccc2S(=O)(=O)O)nn1-c1ccc([N+](=O)[O-])cc1 [EZMTT, 2-(4-nitrophenyl)-3-(2-methoxy-4-nitrophenyl)-5 (2-sulfonic phenyl)-2H-tetrazolium monosodium salt] | 25% | essentially no changes in activity | –
